Measurements reported in article PMC12472947 (Pharmaceuticals, 2025).
“And” between values parts separate entries of the source, which are not always exact repeats. Equal entries are not always repeated. Where two headings read alike, the source gives them in different places.

Assays:
[1] = molecular target: T1, equine serum BChE [EqBChE] (Equus caballus, UniProt P81908); test: biochemical; details: Ellman method, read-out: IC50(nM) ± SD BChE (EqBChE)
T1 construct: equine serum BChE [EqBChE]; from tissue; host or cells: equine serum
T1 sequence (P81908 whole entry): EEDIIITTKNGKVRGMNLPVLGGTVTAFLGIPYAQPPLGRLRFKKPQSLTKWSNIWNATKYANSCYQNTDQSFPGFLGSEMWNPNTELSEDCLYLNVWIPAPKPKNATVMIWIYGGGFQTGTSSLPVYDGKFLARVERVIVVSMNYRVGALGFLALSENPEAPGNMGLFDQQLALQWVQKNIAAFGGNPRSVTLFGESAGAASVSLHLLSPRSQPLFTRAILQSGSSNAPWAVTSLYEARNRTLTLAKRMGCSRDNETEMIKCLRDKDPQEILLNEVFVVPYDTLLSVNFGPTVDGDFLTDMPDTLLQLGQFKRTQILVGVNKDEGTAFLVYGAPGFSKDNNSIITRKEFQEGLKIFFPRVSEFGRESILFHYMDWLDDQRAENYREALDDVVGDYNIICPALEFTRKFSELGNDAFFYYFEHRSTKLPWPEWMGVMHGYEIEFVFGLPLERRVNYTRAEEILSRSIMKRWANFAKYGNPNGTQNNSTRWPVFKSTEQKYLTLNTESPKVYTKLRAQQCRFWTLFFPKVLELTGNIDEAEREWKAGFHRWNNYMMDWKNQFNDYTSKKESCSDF
Experimental: (§1) The anticholinesterase activity was determined using Ellman’s method, adapted as follows. […] Subsequently, 60 μL of 5,5′-dithiobis(2-nitrobenzoic acid) (DTNB, 1.1 mM) and 30 μL of enzyme solution (electric eel AChE [EeAChE], human AChE [hAChE], or equine serum BChE [EqBChE], 0.20 U/mL) containing 1 mg/mL bovine serum albumin (BSA) were added. […] Enzyme activity was calculated as the percentage relative to untreated controls, subtracting the blank reference. IC50 values were derived via non-linear regression analysis of dose–response curves (Figure S4) using GraphPad Prism v7.0.

[2] = molecular target: electric eel AChE [EeAChE] (Electrophorus electricus, UniProt O42275); test: biochemical; format: biochemical; details: for IC50: Electric eel AChE, Ellman method, read-out: IC50(nM) ± SD AChE (EeAChE); for SI: Selectivity Index = EqBChE IC50/EeAChE IC50
Chain of electric eel AChE [EeAChE] (O42275 24-633): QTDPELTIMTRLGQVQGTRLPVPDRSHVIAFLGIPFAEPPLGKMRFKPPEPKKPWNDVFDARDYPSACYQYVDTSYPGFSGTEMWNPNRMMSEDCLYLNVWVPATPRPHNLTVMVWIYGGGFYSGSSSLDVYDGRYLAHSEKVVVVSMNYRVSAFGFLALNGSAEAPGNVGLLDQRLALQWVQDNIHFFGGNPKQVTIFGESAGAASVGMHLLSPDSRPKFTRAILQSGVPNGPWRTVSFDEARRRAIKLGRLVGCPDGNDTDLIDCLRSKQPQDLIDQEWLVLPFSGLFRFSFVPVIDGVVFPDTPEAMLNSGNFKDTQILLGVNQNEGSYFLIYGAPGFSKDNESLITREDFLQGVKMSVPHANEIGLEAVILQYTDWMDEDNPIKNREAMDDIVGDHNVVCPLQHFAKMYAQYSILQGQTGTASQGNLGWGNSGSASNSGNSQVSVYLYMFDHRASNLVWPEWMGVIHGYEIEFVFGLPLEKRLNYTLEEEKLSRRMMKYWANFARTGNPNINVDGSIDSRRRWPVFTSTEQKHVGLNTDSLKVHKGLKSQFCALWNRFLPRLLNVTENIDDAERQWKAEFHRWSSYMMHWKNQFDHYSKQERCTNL
Experimental: as §1

[3] = test system: H2O2-damaged SH-SY5Y cells; test: In vitro neuroprotection against H2O2 in SH-SY5Y (MTT)
Experimental: For the neuroprotection assay, the cells previously cultured (Section 3.4.1) were seeded in 96-well plates at a density of 5 × 10^4 cells/well in a volume of 200 µL. The plates were incubated at 37 °C containing 5% CO2 for 24 h. After 24 h, the medium was replaced with the test solutions. […] Finally, the test solutions were removed, the cells were washed with PBS pH 7.4, and the H2O2 solution was added and maintained in contact with the cells for 24 h. After 24 h exposure, the neuroprotective capacity was assessed through cell viability using the MTT assay protocol previously described in Section 3.4.3 [52, 53].

[4] = Cytotoxicity (neurotoxicity) MTT assay in SH-SY5Y; format: cell-based; details: human, SH-SY5Y neuroblastoma cells
Experimental: (§2) The immortalized human neuroblastoma cell line (SH-SY5Y–ATCC: CRL-2226; BCRJ:0223) was used to evaluate cytotoxicity. The cell line was cultured in Dulbecco’s Modified Eagle’s Medium and F12 in a 1:1 ratio (DMEM:F12; Sigma-Aldrich code 0697, Brazil) supplemented with 10% fetal bovine serum (FBS; Sigma-Aldrich code F2442, Brazil) and 1% streptomycin/penicillin (10,000 U/mL and 10,000 μg/mL, respectively; Nova Biotecnologia code BR30110-01, Cotia, SP, Brazil) and incubated at 37 °C with 5% CO2. The culture medium was replaced every 48 h, until the cells reached semi-confluence (≥70%). Cell passage was carried out with the aid of trypsin-EDTA/0.25% solution (Nova Biotecnologia, Brazil) and divided between 5 or 8 mL culture volumes depending on the respective bottles (25 or 75 cm^2) used.
(§3) The in vitro cytotoxicity assay evaluated cell viability using the [3-(4,5-dimethylthiazol-2yl)-2,5-diphenyl tetrazolium] bromide (MTT) reduction assay. Cells were seeded at an initial density of 5.0 × 10^4 cells/well in 96-well plates in a volume of 200 µL. […] In the next step, the culture medium was replaced by the sample solution previously described (Section 3.4.2). After 24 h exposure, the medium was replaced with 100 μL of MTT in phosphate-buffer saline (PBS), pH 7.4, at a concentration of 0.5 mg.mL^−1/well and the plates were incubated for an additional 3 h. Then, the MTT solution was removed, and 100 μL of DMSO was added to solubilize the formazan crystals. The cell viability was measured by absorbance at 562 nm using a Microplate Absorbance Reader (Kasuaki, Brazil). All concentrations tested were evaluated in nine replicates (n = 9). The variation in results was observed using ANOVA followed by Tukey’s test for multiple comparisons through GraphPad Prism v5^TM with a significance level of p < 0.05.

[5] = test system: SH-SY5Y neuroblastoma cells; test: Cytotoxicity (neurotoxicity) MTT assay in SH-SY5Y; format: cell-based; details: up to 50 µM
Experimental: as §2, §3

[6] = molecular target: electric eel acetylcholinesterase (EeAChE) (Electrophorus electricus, UniProt O42275); test: Enzymatic kinetic study, EeAChE; format: biochemical; details: AChE
Chain of electric eel acetylcholinesterase (EeAChE) (O42275 24-633): as above
Experimental: (§4) The enzymatic kinetics of cholinesterase inhibition were determined according to an adapted Ellman’s method. All of the solutions were prepared at 20 °C in 0.02 M Tris-HCl buffer (pH 7.5; ionic strength ~0.02 M), stock solutions of test compounds were prepared in DMSO:EtOH (7:3) mixture (20 mM), and the experiment was conducted in triplicate. To a flat-bottom 96-well transparent plate (path length of 0.6 cm) were added 150 μL of treatment solutions with inhibitors 1a, 1h, and 1j at two different concentrations (Table S1) distributed in eight sets of triplicate each. Eight sets of untreated triplicates were used as a negative control. Following, there were added 60 μL of 5,5′-Dithiobis(2-nitrobenzoic acid) (DTNB, Ellman’s reagent) at 1.1 mM and 30 μL of electric eel acetylcholinesterase (EeAChE) or equine serum butyrylcholinesterase (EqBuChE) at 0.20 U/mL in the presence of 1 mg/mL bovine serum albumin (BSA). […] Ki, Ki’ (competitive and noncompetitive inhibition constants, respectively), Km (Michaelis-Menten constant), and Vmax values were calculated with Graphpad Prism v7.0 using the non-linear regression models for enzyme kinetics inhibition and enzyme kinetics–substrate vs. velocity.

[7] = molecular target: T2, equine serum butyrylcholinesterase (EqBuChE) (Equus caballus, UniProt P81908); test: Enzymatic kinetic study, EqBChE; format: biochemical; details: BChE
T2 construct: equine serum BChE [EqBChE]; from tissue; host or cells: equine serum
T2 sequence (P81908 whole entry): as the sequence (P81908 whole entry) above
Experimental: as §4

[8] = enzyme-substrate complex, global non-linear regression (Table 2)
[9] = global non-linear regression, mixed inhibition (Table S3)

SMILES | IC50 [1] [nM] | IC50 [2] [nM] | SI [2] | further results
CC1CCN(CCOc2ccc3cc(-c4cn(-c5ccccc5)nn4)c(=O)oc3c2)CC1 [Compound 1e, 7-(2-(4-Methylpiperidin-1-yl)ethoxy)-3-(1-phenyl-1H-1,2,3-triazol-4-yl)-2H-chromen-2-one] | 11100 | 1690 ± 75 | ~7 | 
O=c1oc2cc(OCCCCCN3CCCCC3)ccc2cc1-c1cn(-c2ccccc2)nn1 [Compound 1d, 3-(1-Phenyl-1H-1,2,3-triazol-4-yl)-7-((5-(piperidin-1-yl)pentyl)oxy)-2H-chromen-2-one] | 3540 ± 81 | 4790 ± 290 | ~1 | 
CN1CCN(CCOc2ccc3cc(-c4cn(-c5ccccc5)nn4)c(=O)oc3c2)CC1 [Compound 1f, 7-(2-(4-Methylpiperazin-1-yl)ethoxy)-3-(1-phenyl-1H-1,2,3-triazol-4-yl)-2H-chromen-2-one] | 8140 ± 890 | 3160 ± 76 | 3 | 
O=c1oc2cc(OCCN3CCCCC3)ccc2cc1-c1cn(Cc2ccc(Cl)cc2)nn1 [Compound 1n, 3-(1-(4-Chlorobenzyl)-1H-1,2,3-triazol-4-yl)-7-(2-(piperidin-1-yl)ethoxy)-2H-chromen-2-one] | 2240 ± 60 | 104 ± 5.4 |  | 
O=c1oc2cc(OCCN3CCCCC3)ccc2cc1-c1cn(Cc2cccc(Br)c2)nn1 [Compound 1o, 3-(1-(3-Bromobenzyl)-1H-1,2,3-triazol-4-yl)-7-(2-(piperidin-1-yl)ethoxy)-2H-chromen-2-one] | 2090 ± 54 | 7.92 ± 0.48 | 265 | 
O=c1oc2cc(OCCCCN3CCCCC3)ccc2cc1-c1cn(-c2ccccc2)nn1 [Compound 1c, 3-(1-Phenyl-1H-1,2,3-triazol-4-yl)-7-(4-(piperidin-1-yl)butoxy)-2H-chromen-2-one] | 2410 ± 29 | 1110 ± 10 | ~2 | 
O=c1oc2cc(OCCN3CCNCC3)ccc2cc1-c1cn(-c2ccccc2)nn1 [Compound 1g, 3-(1-Phenyl-1H-1,2,3-triazol-4-yl)-7-(2-(piperazin-1-yl)ethoxy)-2H-chromen-2-one] | 9840 ± 130 | 1060 ± 74 | ~8 | 
O=c1oc2cc(OCCN3CCCCC3)ccc2cc1-c1cn(Cc2ccc(Br)cc2)nn1 [Compound 1p, 3-(1-(4-Bromobenzyl)-1H-1,2,3-triazol-4-yl)-7-(2-(piperidin-1-yl)ethoxy)-2H-chromen-2-one] | 1140 ± 70 | 12.9 ± 0.96 | 88 | 
O=c1oc2cc(OCCN3CCCCC3)ccc2cc1-c1cn(Cc2ccc(F)cc2)nn1 [Compound 1l, 3-(1-(4-Fluorbenzyl)-1H-1,2,3-triazol-4-yl)-7-(2-(piperidin-1-yl)ethoxy)-2H-chromen-2-one] | 4120 ± 110 | 23.4 ± 1.77 | 176 | 
COc1ccc(Cn2cc(-c3cc4ccc(OCCN5CCCCC5)cc4oc3=O)nn2)cc1 [Compound 1k, 3-(1-(4-Methoxybenzyl)-1H-1,2,3-triazol-4-yl)-7-(2-(piperidin-1-yl)ethoxy)-2H-chromen-2-one] | 2080 ± 99 | 4.58 ± 0.62 | 443 | neuroprotection against H2O2-induced oxidative stress ([3]; 12.5 µM): neuroprotective effects; viability at 12.5 µM ([3]; Homo sapiens, SH-SY5Y, read-out: Cell viability (% of control)): 92%; viability at 24 h, 12.5 µM ([4]; 12.5 μM, 24 h, MTT, read-out: Cell viability (% of control)): 99%; viability at 24 h, 25 µM ([4]; 25.0 μM, 24 h, MTT, read-out: Cell viability (% of control)): 106%; viability at 24 h, 50 µM ([4]; 50.0 μM, 24 h, MTT, read-out: Cell viability (% of control)): 84%; viability at 24 h ([4]; up to 25 μM, read-out: cell viability): ≥ 70%; neurotoxicity [5]: non-neurotoxic
O=c1oc2cc(OCCN3CCCCC3)ccc2cc1-c1cn(Cc2cccc(Cl)c2)nn1 [Compound 1m] | 1950 ± 120 | 13.1 ± 0.83 | 149 | 
COc1ccccc1Cn1cc(-c2cc3ccc(OCCN4CCCCC4)cc3oc2=O)nn1 [Compound 1i, 3-(1-(2-Methoxybenzyl)-1H-1,2,3-triazol-4-yl)-7-(2-(piperidin-1-yl)ethoxy)-2H-chromen-2-one] | 2810 ± 230 | 15.3 ± 0.25 | 184 | 
O=c1oc2cc(OCCN3CCCCC3)ccc2cc1-c1cn(-c2ccccc2)nn1 [Compound 1a, 3-(1-Phenyl-1H-1,2,3-triazol-4-yl)-7-(2-(piperidin-1-yl)ethoxy)-2H-chromen-2-one] | 8660 ± 150 | 50 ± 2.04 | 173 | inhibition mechanism ([6]; Lineweaver-Burk plots): mixed-type inhibition; Ki′ ± SE (95% CI) ([6]; enzyme-substrate complex (Table S3)): 0.06159 ± 0.02004 µM; Ki’ (nM) ± SE [6, 8]: 61.59 ± 20.04 nM; Ki ([6]; free enzyme, global non-linear regression to mixed-inhibition equation (Table 2), read-out: Ki (nM) ± SE): 30.8 ± 5.38 nM; α ± SE (95% CI) [6, 9]: 2.001 ± 0.6489; Vmax ± SD ([6]; inhibitor 0.02 μM): 2.78 ± 0.044 1 × 10^3 nM/min and 2.78 ± 0.04 1 × 10^3 nM/min; Vmax ± SD ([6]; inhibitor 0.06 μM): 2.06 ± 0.031 1 × 10^3 nM/min and 2.06 ± 0.03 1 × 10^3 nM/min; inhibition mechanism ([7]; Lineweaver-Burk plots): mixed-type inhibition; Ki ([7]; competitive inhibition constant (Table S2), read-out: Ki (nM) ± SD): 3500 ± 64.9 nM; Ki’ (nM) ± SE [7, 8]: 11,400 ± 1100 nM; Ki ([7]; free enzyme (Table S3), read-out: Ki ± SE (95% CI)): 3940 ± 227 nM; Ki ([7]; free enzyme, global non-linear regression (Table 2), read-out: Ki (nM) ± SE): 3940 ± 230 nM; α ± SE (95% CI) [7, 9]: 2.883 ± 0.3970; Vmax ± SD ([7]; inhibitor 4 μM): 11.69 ± 0.201 1 × 10^3 nM/min and 11.69 ± 0.20 1 × 10^3 nM/min; Vmax ± SD ([7]; inhibitor 8 μM): 8.24 ± 0.212 1 × 10^3 nM/min and 8.24 ± 0.21 1 × 10^3 nM/min
